In patent publication US20230276831A1, “Food/Beverage Article” (Kikkoman Corporation, priority 2020, published 2023):

System: Lactobacillus acidipiscis NBRC 102164
Test: Antimicrobial action of licoricidin in liquid seasoning (1), lactic acid bacteria D
Format: cell-based
Parameters: key: A: The bacterial count decreases to less than 10% of the bacterial count of the control group.; B: The bacterial count decreases to 10% or more and less than 50% of the bacterial count of the control group.; C: The bacterial count decreases to 50% or more and less than 100% of the bacterial count of control group.; D: The bacterial count is the same as the bacterial count of the control group
Method: Commercially available whole soybean soy sauce (produced by Kikkoman Corporation) was electrodialyzed and then concentrated under reduced pressure to obtain soy sauce at a salt concentration of 0% (w/v) and an alcohol concentration of 0% (v/v). Then, salt and/or alcohol was added to the above-mentioned obtained soy sauce, and the mixture was heat-treated to produce soy sauces at salt concentrations and alcohol concentrations shown in the following Table 5. The pHs of the soy sauces were 4.9 to 5.0.
Specifically, components contained in dried bonito was extracted with alcohol and water; sugar, salt, and seasonings were blended with the obtained extract; and the resulting mixture was heated to produce bonito stock. The salt concentration of the obtained bonito stock was 0.2% (w/v), the alcohol concentration was 0.15% (v/v), and the pH was 6.1.
Specifically, Koikuchi soy sauce (produced by Kikkoman Corporation), granulated sugar, potato starch, and water were blended in amounts shown in following Table 7, and the resulting mixture was heated to produce sauce. The salt concentration of the obtained sauce was 5.3% (w/v), the alcohol concentration was 0.8% (v/v), and the pH was 5.0.
Specifically, the components contained in dried bonito was extracted with water; Koikuchi soy sauce (produced by Kikkoman Corporation), sugar, and salt were blended with the obtained extract; and the resulting mixture was heated to produce Japanese seasoned soup stock. The salt concentration of the obtained Japanese seasoned soup stock was 3% (w/v), the alcohol concentration was 0.4% (v/v), and the pH was 5.5.
Licoricidin (produced by ChemFaces) was added to each of the liquid seasonings produced in the above-mentioned (1) to concentrations of 1 ppm, 5 ppm, 10 ppm, 25 ppm, and 50 ppm. Lactic acid bacteria described in the following Table 9 were then added to 10^6 to 10^7 cells/mL and cultured at 30° C. for 7 days. After the culture, the number of lactic acid bacteria was measured using the GAM agar medium “Nissui”. Liquid seasoning to which licoricidin was not added was used as a control group, and the antimicrobial activity was evaluated in comparison with the number of lactic acid bacteria in the control group. The evaluation was performed using the criterion shown below.
• A: The bacterial count decreases to less than 10% of the bacterial count of the control group. • B: The bacterial count decreases to 10% or more and less than 50% of the bacterial count of the control group. • C: The bacterial count decreases to 50% or more and less than 100% of the bacterial count of control group. • D: The bacterial count is the same as the bacterial count of the control group.

COc1c(CC=C(C)C)c(O)cc2c1C[C@H](c1ccc(O)c(CC=C(C)C)c1O)CO2 [Licoricidin, 4-[(R)-7-hydroxy-5-methoxy-6-(3-methyl-2-butenyl)chroman-3-yl]-2-(3-methyl-2-butenyl)-1,3-benzenediol]
Antimicrobial activity (Bonito stock (salt 0.2% (w/v), alcohol 0.15% (v/v), pH 6.1), licoricidin 1 ppm): A (The bacterial count decreases to less than 10% of the bacterial count of the control group.)
Antimicrobial activity (Bonito stock (salt 0.2% (w/v), alcohol 0.15% (v/v), pH 6.1), licoricidin 5 ppm): A (The bacterial count decreases to less than 10% of the bacterial count of the control group.)
Antimicrobial activity (Bonito stock (salt 0.2% (w/v), alcohol 0.15% (v/v), pH 6.1), licoricidin 10 ppm): A (The bacterial count decreases to less than 10% of the bacterial count of the control group.)
Antimicrobial activity (Bonito stock (salt 0.2% (w/v), alcohol 0.15% (v/v), pH 6.1), licoricidin 25 ppm): A (The bacterial count decreases to less than 10% of the bacterial count of the control group.)
Antimicrobial activity (Bonito stock (salt 0.2% (w/v), alcohol 0.15% (v/v), pH 6.1), licoricidin 50 ppm): A (The bacterial count decreases to less than 10% of the bacterial count of the control group.)
Antimicrobial activity (Japanese seasoned soup stock (salt 3% (w/v), alcohol 0.4% (v/v), pH 5.5), licoricidin 1 ppm): D
Antimicrobial activity (Japanese seasoned soup stock (salt 3% (w/v), alcohol 0.4% (v/v), pH 5.5), licoricidin 5 ppm): A (The bacterial count decreases to less than 10% of the bacterial count of the control group.)
Antimicrobial activity (Japanese seasoned soup stock (salt 3% (w/v), alcohol 0.4% (v/v), pH 5.5), licoricidin 10 ppm): A (The bacterial count decreases to less than 10% of the bacterial count of the control group.)
Antimicrobial activity (Japanese seasoned soup stock (salt 3% (w/v), alcohol 0.4% (v/v), pH 5.5), licoricidin 25 ppm): A (The bacterial count decreases to less than 10% of the bacterial count of the control group.)
Antimicrobial activity (Japanese seasoned soup stock (salt 3% (w/v), alcohol 0.4% (v/v), pH 5.5), licoricidin 50 ppm): A (The bacterial count decreases to less than 10% of the bacterial count of the control group.)
Antimicrobial activity (Sauce (salt 5.3% (w/v), alcohol 0.8% (v/v), pH 5.0), licoricidin 1 ppm): C (The bacterial count decreases to 50% or more and less than 100% of the bacterial count of control group.)
Antimicrobial activity (Sauce (salt 5.3% (w/v), alcohol 0.8% (v/v), pH 5.0), licoricidin 5 ppm): C (The bacterial count decreases to 50% or more and less than 100% of the bacterial count of control group.)
Antimicrobial activity (Sauce (salt 5.3% (w/v), alcohol 0.8% (v/v), pH 5.0), licoricidin 10 ppm): A (The bacterial count decreases to less than 10% of the bacterial count of the control group.)
Antimicrobial activity (Sauce (salt 5.3% (w/v), alcohol 0.8% (v/v), pH 5.0), licoricidin 25 ppm): A (The bacterial count decreases to less than 10% of the bacterial count of the control group.)
Antimicrobial activity (Sauce (salt 5.3% (w/v), alcohol 0.8% (v/v), pH 5.0), licoricidin 50 ppm): A (The bacterial count decreases to less than 10% of the bacterial count of the control group.)
Antimicrobial activity (Soy sauce, salt 0% (w/v), alcohol 0% (v/v), licoricidin 1 ppm): C (The bacterial count decreases to 50% or more and less than 100% of the bacterial count of control group.)
Antimicrobial activity (Soy sauce, salt 0% (w/v), alcohol 0% (v/v), licoricidin 5 ppm): C (The bacterial count decreases to 50% or more and less than 100% of the bacterial count of control group.)
Antimicrobial activity (Soy sauce, salt 0% (w/v), alcohol 0% (v/v), licoricidin 10 ppm): B (The bacterial count decreases to 10% or more and less than 50% of the bacterial count of the control group.)
Antimicrobial activity (Soy sauce, salt 0% (w/v), alcohol 0% (v/v), licoricidin 25 ppm): A (The bacterial count decreases to less than 10% of the bacterial count of the control group.)
Antimicrobial activity (Soy sauce, salt 0% (w/v), alcohol 0% (v/v), licoricidin 50 ppm): A (The bacterial count decreases to less than 10% of the bacterial count of the control group.)
Antimicrobial activity (Soy sauce, salt 4% (w/v), alcohol 0% (v/v), licoricidin 1 ppm): D
Antimicrobial activity (Soy sauce, salt 4% (w/v), alcohol 0% (v/v), licoricidin 5 ppm): A (The bacterial count decreases to less than 10% of the bacterial count of the control group.)
Antimicrobial activity (Soy sauce, salt 4% (w/v), alcohol 0% (v/v), licoricidin 10 ppm): A (The bacterial count decreases to less than 10% of the bacterial count of the control group.)
Antimicrobial activity (Soy sauce, salt 4% (w/v), alcohol 0% (v/v), licoricidin 25 ppm): A (The bacterial count decreases to less than 10% of the bacterial count of the control group.)
Antimicrobial activity (Soy sauce, salt 4% (w/v), alcohol 0% (v/v), licoricidin 50 ppm): A (The bacterial count decreases to less than 10% of the bacterial count of the control group.)
Antimicrobial activity (Soy sauce, salt 8% (w/v), alcohol 0% (v/v), licoricidin 1 ppm): C (The bacterial count decreases to 50% or more and less than 100% of the bacterial count of control group.)
Antimicrobial activity (Soy sauce, salt 8% (w/v), alcohol 0% (v/v), licoricidin 5 ppm): A (The bacterial count decreases to less than 10% of the bacterial count of the control group.)
Antimicrobial activity (Soy sauce, salt 8% (w/v), alcohol 0% (v/v), licoricidin 10 ppm): A (The bacterial count decreases to less than 10% of the bacterial count of the control group.)
Antimicrobial activity (Soy sauce, salt 8% (w/v), alcohol 0% (v/v), licoricidin 25 ppm): A (The bacterial count decreases to less than 10% of the bacterial count of the control group.)
Antimicrobial activity (Soy sauce, salt 8% (w/v), alcohol 0% (v/v), licoricidin 50 ppm): A (The bacterial count decreases to less than 10% of the bacterial count of the control group.)
Antimicrobial activity (Soy sauce, salt 12% (w/v), alcohol 0% (v/v), licoricidin 1 ppm): D
Antimicrobial activity (Soy sauce, salt 12% (w/v), alcohol 0% (v/v), licoricidin 5 ppm): A (The bacterial count decreases to less than 10% of the bacterial count of the control group.)
Antimicrobial activity (Soy sauce, salt 12% (w/v), alcohol 0% (v/v), licoricidin 10 ppm): A (The bacterial count decreases to less than 10% of the bacterial count of the control group.)
Antimicrobial activity (Soy sauce, salt 12% (w/v), alcohol 0% (v/v), licoricidin 25 ppm): A (The bacterial count decreases to less than 10% of the bacterial count of the control group.)
Antimicrobial activity (Soy sauce, salt 12% (w/v), alcohol 0% (v/v), licoricidin 50 ppm): A (The bacterial count decreases to less than 10% of the bacterial count of the control group.)
